Data from US9737535B2, “Methods for treating cancer using TOR kinase inhibitor combination therapy comprising administering substituted pyrazino[2,3-b]pyrazines” (Signal Pharmaceuticals, LLC, priority 2014, dated 2017).
Where a name gives a salt, the structure may show the parent alone.

Legend:
Experiment in all cases: Anti-proliferation assay (ATPLite), Chalice synergy score
Format in all cases: cell-based
BT-20 = system: BT-20; parameters: scale not given here; conditions: Compound 1 in combination with the named second active agent, 72 h, mean of n = 3 experiments in triplicate
Source text: (§1) Cells were thawed from a liquid nitrogen preserved state.
(§2) The calculation for synergy score is provided below.
(§3) If T≧V0:100*[1−(T−V0)/(V−V0)]

HCC-1187 = system: HCC-1187; parameters: scale not given here; conditions: Compound 1 in combination with the named second active agent, 72 h, mean of n = 3 experiments in triplicate
Source text: as §1, §2, §3

HCC-1500 = system: HCC-1500; parameters: scale not given here; conditions: Compound 1 in combination with the named second active agent, 72 h, mean of n = 3 experiments in triplicate
Source text: as §1, §2, §3

BT-474 = conditions: Compound 1 in combination with the named second active agent, 72 h, mean of n = 3 experiments in triplicate
Source text: as §1, §2, §3

HCC-1428 = conditions: Compound 1 in combination with the named second active agent, 72 h, mean of n = 3 experiments in triplicate
Source text: as §1, §2, §3

HCC-1806 = conditions: Compound 1 in combination with the named second active agent, 72 h, mean of n = 3 experiments in triplicate
Source text: as §1, §2, §3

HCC-1937 = conditions: Compound 1 in combination with the named second active agent, 72 h, mean of n = 3 experiments in triplicate
Source text: as §1, §2, §3

HCC70 = conditions: Compound 1 in combination with second active agent; HCC-70; mean self-cross + 2σ threshold 3.45
Source text: as §1, §2, §3

Hs-578-T = conditions: Compound 1 in combination with second active agent, mean self-cross + 2σ threshold 4.09
Source text: as §1, §2, §3

MCF7 = conditions: Compound 1 in combination with second active agent, mean self-cross + 2σ threshold 3.07
Source text: as §1, §2, §3

MDA-MB-157 = conditions: Compound 1 in combination with second active agent, mean self-cross + 2σ threshold 4.68
Source text: as §1, §2, §3

MDA-MB-231 = conditions: Compound 1 in combination with second active agent, mean self-cross + 2σ threshold 2.61
Source text: as §1, §2, §3

MDA-MB-436 = conditions: Compound 1 in combination with second active agent, mean self-cross + 2σ threshold 1.91
Source text: as §1, §2, §3

MDA-MB-468 = conditions: Compound 1 in combination with second active agent, mean self-cross + 2σ threshold 4.66
Source text: as §1, §2, §3

BT-549 = conditions: Compound 1 in combination with the named second active agent, 72 h, mean of n = 3 experiments in triplicate
Source text: as §1, §2, §3

SMILES | Synergy score (BT-20) | Synergy score (HCC-1187) | Synergy score (HCC-1500) | Synergy score (BT-474) | Synergy score (HCC-1428) | Synergy score (HCC-1806) | Synergy score (HCC-1937) | Synergy score (HCC70) | Synergy score (Hs-578-T) | Synergy score (MCF7) | Synergy score (MDA-MB-157) | Synergy score (MDA-MB-231) | Synergy score (MDA-MB-436) | Synergy score (MDA-MB-468) | Synergy score (BT-549)
CCN(CCO)CCCOc1ccc2c(Nc3cc(CC(=O)Nc4cccc(F)c4)[nH]n3)ncnc2c1 [AZD1152-HQPA (Barasertib)] | 6.90 | 6.69 | 5.73 | 1.51 | 1.95 | 1.32 | 2.29 |  |  |  |  |  |  |  | 
CCN(CCO)CCCOc1ccc2c(Nc3cc(CC(=O)Nc4cccc(F)c4)[nH]n3)ncnc2c1 [AZD1152-HQPA(Barasertib)] |  |  |  |  |  |  |  | 9.50 | 2.43 | 2.57 | 1.81 | 1.42 | 5.60 | 9.13 | 
CC[C@@H]1C(=O)N(C)c2cnc(Nc3ccc(C(=O)NC4CCN(C)CC4)cc3OC)nc2N1C1CCCC1 [BI 2536] | 5.18 | 3.28 | 4.47 | 9.25 |  | 0.43 | 16.20 | 12.60 | 4.48 | 3.30 | 5.08 | 2.92 | 2.95 | 9.61 | 6.91
O=C(Nc1cccc(Nc2ncc(Br)c(NCCc3c[nH]cn3)n2)c1)N1CCCC1 [BX-912] | 1.32 | 4.10 | 2.11 | 0.87 | 2.05 | 0.57 | 0.44 | 6.05 | 6.07 | 0.69 | 6.65 |  | 2.50 | 8.29 | 1.52
O=C(/C=C/c1cccc(S(=O)(=O)Nc2ccccc2)c1)NO [Belinostat] |  |  |  |  |  |  |  | 10.10 | 7.48 | 7.66 | 7.58 | 12.40 | 7.84 | 6.75 | 
O=C(NC(NC(=S)Nc1ccc(F)c([N+](=O)[O-])c1)C(Cl)(Cl)Cl)C(c1ccccc1)c1ccccc1 (centres unmarked) [CGK733] | 0.72 | 2.01 | 0.55 |  | 0.82 | 1.51 | 1.48 | 3.03 | 2.45 | 0.66 | 1.88 | 1.64 | 0.84 |  | 1.74
N.N.O=C([O-])C1(C(=O)[O-])CCC1.[Pt+2] [Carboplatin] | 0.98 | 2.20 |  | 0.30 | 0.52 | 0.44 | 2.46 | 2.26 | 1.65 | 0.80 | 1.77 | 0.45 | 1.10 | 7.18 | 0.72
N#Cc1c(O)c2c(-c3ccc(-c4ccccc4O)cc3)csc2[nH]c1=O [Compound A769662] | 0.11 | 3.70 | 0.80 |  | 0.34 | 0.54 | 0.07 | 0.07 | 0.39 | 0.46 | 0.70 | 0.17 | 0.06 | 0.77 | 0.29
C[C@@H](Oc1cc(-c2cnn(C3CCNCC3)c2)cnc1N)c1c(Cl)ccc(F)c1Cl [Crizotinib] | 2.70 | 2.32 |  | 1.07 |  | 3.08 | 2.90 | 3.31 |  | 3.06 | 2.97 |  | 1.30 |  | 0.94
COc1cccc2c1C(=O)c1c(O)c3c(c(O)c1C2=O)C[C@@](O)(C(=O)CO)C[C@@H]3O[C@H]1C[C@H](N)[C@H](O)[C@H](C)O1 [Doxorubicin Hcl, Doxorubicin HCl] | 3.96 | 4.45 | 2.70 | 1.25 | 0.96 | 3.55 | 6.92 | 4.00 | 5.85 |  | 8.50 |  | 3.89 | 6.36 | 4.78
O=C(/C=C/c1cccnc1)NCCCCC1CCN(C(=O)c2ccccc2)CC1 [FK-866] | 0.30 | 0.25 | 1.15 | 0.60 | 0.20 | 0.00 | 0.60 | 0.30 | 5.32 | 0.04 |  |  | 0.97 | 0.28 | 0.11
CC1=C(C(=O)Nc2cc3cn[nH]c3cc2F)C(c2ccc(C(F)(F)F)cc2)CC(=O)N1 (centres unmarked) [GSK429286A] |  | 4.54 | 0.19 |  |  | 0.51 | 0.05 |  | 3.35 | 0.19 | 1.95 | 2.14 | 0.57 | 0.13 | 1.72
Nc1ccn([C@@H]2O[C@H](CO)[C@@H](O)C2(F)F)c(=O)n1 [Gemcitabine Hydrochloride] | 1.85 | 1.83 | 3.72 | 0.17 |  | 0.84 | 3.78 |  | 0.96 | 0.38 | 2.53 | 2.51 | 3.05 | 5.52 | 1.86
C[C@@H]1CN(CC(=O)Nc2ccc3c(c2)Cc2cccc(-c4cc(=O)cc(N5CCOCC5)o4)c2S3)C[C@H](C)O1 [KU-60019] | 0.05 | 1.24 | 0.98 |  | 0.11 | 0.38 | 0.04 | 0.21 | 0.11 | 0.04 | 0.13 | 0.08 | 0.13 | 0.19 | 0.18
NS(=O)(=O)OC[C@@H]1C[C@@H](n2ccc3c(N[C@H]4CCc5ccccc54)ncnc32)C[C@@H]1O [MLN-4924] | 1.78 | 7.09 | 1.31 | 8.59 | 3.68 | 2.90 | 9.15 | 0.46 | 3.55 | 0.94 | 6.73 |  |  | 15.10 | 2.83
Nc1ccccc1NC(=O)c1ccc(CNC(=O)OCc2cccnc2)cc1 [MS-275] |  |  |  |  |  |  |  | 9.37 | 8.44 | 7.69 | 8.10 | 11.70 | 7.83 | 9.25 | 
C/C=C1\NC(=O)[C@H]2CSSCC/C=C/[C@H](CC(=O)N[C@H](C(C)C)C(=O)N2)OC(=O)[C@H](C(C)C)NC1=O [Romidepsin] |  |  |  |  |  |  |  | 6.74 |  |  | 5.71 | 9.27 | 5.84 | 7.26 | 
CNC(=O)c1cc(Oc2ccc(NC(=O)Nc3ccc(Cl)c(C(F)(F)F)c3)cc2)ccn1 [Sorafenib] | 1.16 |  | 0.69 | 2.32 |  |  | 2.10 | 2.51 | 1.65 | 1.18 | 0.56 | 1.55 |  |  | 0.00
COc1cc2nccc(Oc3ccc(NC(=O)C4(C(=O)Nc5ccc(F)cc5)CC4)cc3)c2cc1OC [XL184] | 3.67 | 1.29 | 1.20 | 1.51 | 1.19 | 1.44 | 2.15 | 1.47 | 3.19 | 4.34 |  |  | 0.90 | 1.84 | 0.52
